Assay results: PMC4665511, “An Improved Neutral α-Glucosidase Assay for Assessment of Epididymal Function—Validation and Comparison to the WHO Method” (Diagnostics, 2014)

Tested on: T1, Neutral α-glucosidase (NAG)
T1 construct: gene MGAM; native, unpurified enzyme in human seminal plasma
Assay: spectrophotometric PNP release at […] nm, Michaelis-Menten
Type: biochemical, Homo sapiens
Conditions: seminal plasma, not purified; average of semen samples (n = 13 in methods); adapted proprietary buffer with SDS, pH 6.8, 37 °C

Compound: O=[N+]([O-])c1ccc(O[C@H]2O[C@H](CO)[C@@H](O)[C@H](O)[C@H]2O)cc1 [para-nitrophenyl-α-D-glucopyranoside]
- Km: 4.6 ± 0.63 mM
